Legend:
Adrenergic, Beta 2 (hr) = Adrenergic, Beta 2 (hr) (Homo sapiens, UniProt P07550); experiment: Receptor binding assay: Adrenergic Beta 2; settings: Test Compound @ 10 1 M
[1] = target: T1, Benzodiazepine, peripheral (h) (Homo sapiens, UniProt P30536); experiment: Receptor binding assay: Benzodiazepine peripheral; settings: Test Compound @ 10 1 M
T1 construct: Novascreen (assay provider)

Dopamine Transporter = experiment: Dopamine transporter binding assay; settings: Test Compound @ 10 1 M
[2] = In vitro metabolism in hepatic microsomes, human; type: in vitro ADME; settings: both sexes, mixed male and female humans, read-out: t1/2 in hepatic microsomes
Protocol: In vitro metabolism of 1-[2-dimethylamino-1-(4-phenol)ethyl]-cis-1,4-cyclohexandiol was conducted in the hepatic microsomes of Sprague-Dawley rats, male dogs, male monkeys and mixed male and female humans to characterize metabolic stability and identification of metabolites. 1-[2-dimethylamino-1-(4-phenol)ethyl]-cis-1,4-cyclohexandiol was stable (t1/2>60 minutes) in hepatic microsomes indicating Phase I and II metabolism was minimal in all species.

T1 sequence (P30536 whole entry): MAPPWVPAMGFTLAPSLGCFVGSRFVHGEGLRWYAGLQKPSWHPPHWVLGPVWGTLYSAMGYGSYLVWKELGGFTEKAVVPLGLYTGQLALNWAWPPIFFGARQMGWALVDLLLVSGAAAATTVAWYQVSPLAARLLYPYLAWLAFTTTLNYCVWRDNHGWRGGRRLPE
Sequence of Adrenergic, Beta 2 (hr) (P07550 whole entry): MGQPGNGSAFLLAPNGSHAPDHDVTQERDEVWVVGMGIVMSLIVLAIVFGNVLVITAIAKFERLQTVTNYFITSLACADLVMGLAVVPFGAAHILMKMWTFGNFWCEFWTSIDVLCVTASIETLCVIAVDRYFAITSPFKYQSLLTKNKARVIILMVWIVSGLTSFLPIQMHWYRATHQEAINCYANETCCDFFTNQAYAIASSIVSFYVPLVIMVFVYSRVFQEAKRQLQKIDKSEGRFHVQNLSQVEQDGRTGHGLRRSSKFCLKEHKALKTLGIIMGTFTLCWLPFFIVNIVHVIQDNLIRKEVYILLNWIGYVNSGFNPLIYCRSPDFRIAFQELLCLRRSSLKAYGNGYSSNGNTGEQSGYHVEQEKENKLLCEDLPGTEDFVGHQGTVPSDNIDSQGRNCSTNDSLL

Structure (SMILES): CN(C)CC(c1ccc(O)cc1)C1(O)CCC(O)CC1 (stereo not drawn) [1-[2-dimethylamino-1-(4-phenol)ethyl]-cis-1,4-cyclohexandiol]
- inhibition at 10 µM (Adrenergic, Beta 2 (hr)): -2.46%
- inhibition at 10 µM [1]: 1.65%
- Receptor Binding % Inhibition (Dopamine Transporter): 8.49%
- half-life [2]: > 1 h

— patent US20070015828A1 (Wyeth, priority 2005, published 2007)
